For 19 compounds, EC50 results are on record in patent US8574563B2 (Bristol-Myers Squibb Company, priority 2006, dated 2013).

The test system of this test is HCV 1b-377-neo replicon cells. Nature of the test: HCV replicon assay, HCV 1b-377-neo replicon cells (1b FRET). It is filed as cell-based, Hepatitis C virus genotype 1b. The following applies: HCV 1b-377-neo replicon cells, HCV 1b genotype, read-out: EC50 range against HCV 1b (Table 2, Range). In outline:
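FRET-based replicon assay in HCV 1b-377-neo cells, including a comparison line carrying the NS5A Y2065H mutation that confers resistance to a reference compound.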
For orientation: Replicon systems follow genome replication, usually without infectious particles.

Molecules are shown by their SMILES. Like-named read-outs stand apart in the source and are kept apart here.

A word on the EC50: it is the concentration giving half of the maximal effect. Consider `CN(C)[C@@H](C(=O)N1CCC[C@H]1c1ncc(-c2ccc(-c3ccc(-c4cnc([C@@H]5CCCN5C(=O)c5snnc5-c5ccccc5)[nH]4)cc3)cc2)[nH]1)c1ccccc1` [Example 94-10, (1R)-N,N-dimethyl-2-oxo-1-phenyl-2-((2S)-2-(5-(4′-(2-((2S)-1-((4-phenyl-1,2,3-thiadiazol-5-yl)carbonyl)-2-pyrrolidinyl)-1H-imidazol-5-yl)-4-biphenylyl)-1H-imidazol-2-yl)-1-pyrrolidinyl)ethanamine], for which the EC50 (Hepatitis C virus) lay within 0.001 to 0.999 nM.
On the same count and under the same terms, then `CN(C)[C@@H](C(=O)N1CCC[C@H]1c1ncc(-c2ccc(-c3ccc(-c4cnc([C@@H]5CCCN5C(=O)C5(C)CCN(C(=O)OC(C)(C)C)CC5)[nH]4)cc3)cc2)[nH]1)c1ccccc1` [Example 94-12, tert-butyl 4-(((2S)-2-(5-(4′-(2-((2S)-1-((2R)-2-(dimethylamino)-2-phenylacetyl)-2-pyrrolidinyl)-1H-imidazol-5-yl)-4-biphenylyl)-1H-imidazol-2-yl)-1-pyrrolidinyl)carbonyl)-4-methyl-1-piperidinecarboxylate], with 1 to 99 nM.
The same measure, in the same setting: then `CN(C)[C@@H](C(=O)N1CCC[C@H]1c1ncc(-c2ccc(-c3ccc(-c4cnc([C@@H]5CCCN5C(=O)Cc5cccc(O)c5)[nH]4)cc3)cc2)[nH]1)c1ccccc1` [Example 94-13, 3-(2-((2S)-2-(5-(4′-(2-((2S)-1-((2R)-2-(dimethylamino)-2-phenylacetyl)-2-pyrrolidinyl)-1H-imidazol-5-yl)-4-biphenylyl)-1H-imidazol-2-yl)-1-pyrrolidinyl)-2-oxoethyl)phenol], with 0.001 to 0.999 nM; and `CN(C)[C@@H](C(=O)N1CCC[C@H]1c1ncc(-c2ccc(-c3ccc(-c4cnc([C@@H]5CCCN5C(=O)[C@@H]5CCN(Cc6ccccc6)C5)[nH]4)cc3)cc2)[nH]1)c1ccccc1` [Example 94-17, (1R)-2-((2S)-2-(5-(4′-(2-((2S)-1-(((3R)-1-benzyl-3-pyrrolidinyl)carbonyl)-2-pyrrolidinyl)-1H-imidazol-5-yl)-4-biphenylyl)-1H-imidazol-2-yl)-1-pyrrolidinyl)-N,N-dimethyl-2-oxo-1-phenylethanamine], with 0.001 to 0.999 nM.
Regarding `Cc1cc(CC(=O)N2CCC[C@H]2c2ncc(-c3ccc(-c4ccc(-c5cnc([C@@H]6CCCN6C(=O)[C@@H](c6ccccc6)N(C)C)[nH]5)cc4)cc3)[nH]2)n[nH]1` [Example 94-19, (1R)-N,N-dimethyl-2-((2S)-2-(5-(4′-(2-((2S)-1-((5-methyl-1H-pyrazol-3-yl)acetyl)-2-pyrrolidinyl)-1H-imidazol-5-yl)-4-biphenylyl)-1H-imidazol-2-yl)-1-pyrrolidinyl)-2-oxo-1-phenylethanamine], the EC50 (Hepatitis C virus) was 0.001 to 0.999 nM.
Consider `CN(C)[C@@H](C(=O)N1CCC[C@H]1c1ncc(-c2ccc(-c3ccc(-c4cnc([C@@H]5CCCN5C(=O)[C@H]5CCCCN5C(=O)OC(C)(C)C)[nH]4)cc3)cc2)[nH]1)c1ccccc1` [Example 94-20, tert-butyl (2R)-2-(((2S)-2-(5-(4′-(2-((2S)-1-((2R)-2-(dimethylamino)-2-phenylacetyl)-2-pyrrolidinyl)-1H-imidazol-5-yl)-4-biphenylyl)-1H-imidazol-2-yl)-1-pyrrolidinyl)carbonyl)-1-piperidinecarboxylate], for which the EC50 (Hepatitis C virus) lay in the range of 1 to 99 nM.
`COc1ccccc1OCC(=O)N1CCC[C@H]1c1ncc(-c2ccc(-c3ccc(-c4cnc([C@@H]5CCCN5C(=O)[C@@H](c5ccccc5)N(C)C)[nH]4)cc3)cc2)[nH]1` [Example 94-24, (1R)-2-((2S)-2-(5-(4′-(2-((2S)-1-((2-methoxyphenoxy)acetyl)-2-pyrrolidinyl)-1H-imidazol-5-yl)-4-biphenylyl)-1H-imidazol-2-yl)-1-pyrrolidinyl)-N,N-dimethyl-2-oxo-1-phenylethanamine]: where the note is “Hepatitis C virus”, the EC50 lay in the range of 0.001 to 0.999 nM.
Same read-out and setting: the result for `CN(C)[C@@H](C(=O)N1CCC[C@H]1c1ncc(-c2ccc(-c3ccc(-c4cnc([C@@H]5CCCN5C(=O)C5CN(C(=O)OC(C)(C)C)C5)[nH]4)cc3)cc2)[nH]1)c1ccccc1` [Example 94-25, tert-butyl 3-(((2S)-2-(5-(4′-(2-((2S)-1-((2R)-2-(dimethylamino)-2-phenylacetyl)-2-pyrrolidinyl)-1H-imidazol-5-yl)-4-biphenylyl)-1H-imidazol-2-yl)-1-pyrrolidinyl)carbonyl)-1-azetidinecarboxylate] reads 0.001 to 0.999 nM.
Regarding `CN(C)[C@@H](C(=O)N1CCC[C@H]1c1ncc(-c2ccc(-c3ccc(-c4cnc([C@@H]5CCCN5C(=O)[C@H]5CCN(Cc6ccccc6)C5)[nH]4)cc3)cc2)[nH]1)c1ccccc1` [Example 94-26, (1R)-2-((2S)-2-(5-(4′-(2-((2S)-1-(((3S)-1-benzyl-3-pyrrolidinyl)carbonyl)-2-pyrrolidinyl)-1H-imidazol-5-yl)-4-biphenylyl)-1H-imidazol-2-yl)-1-pyrrolidinyl)-N,N-dimethyl-2-oxo-1-phenylethanamine], the EC50 (Hepatitis C virus) lay within 0.001 to 0.999 nM.
Same read-out and setting: the result for `CN(C)[C@@H](C(=O)N1CCC[C@H]1c1ncc(-c2ccc(-c3ccc(-c4cnc([C@@H]5CCCN5C(=O)c5cccc(N6CCCC6)c5)[nH]4)cc3)cc2)[nH]1)c1ccccc1` [Example 94-27, (1R)-N,N-dimethyl-2-oxo-1-phenyl-2-((2S)-2-(5-(4′-(2-((2S)-1-(3-(1-pyrrolidinyl)benzoyl)-2-pyrrolidinyl)-1H-imidazol-5-yl)-4-biphenylyl)-1H-imidazol-2-yl)-1-pyrrolidinyl)ethanamine] reads 1 to 99 nM; that for `CN(C)[C@@H](C(=O)N1CCC[C@H]1c1ncc(-c2ccc(-c3ccc(-c4cnc([C@@H]5CCCN5C(=O)C5(C(F)(F)F)CC5)[nH]4)cc3)cc2)[nH]1)c1ccccc1` [Example 94-30, (1R)-N,N-dimethyl-2-oxo-1-phenyl-2-((2S)-2-(5-(4′-(2-((2S)-1-((1-(trifluoromethyl)cyclopropyl)carbonyl)-2-pyrrolidinyl)-1H-imidazol-5-yl)-4-biphenylyl)-1H-imidazol-2-yl)-1-pyrrolidinyl)ethanamine], 0.001 to 0.999 nM.
On the same count and under the same terms, then `CN(C)[C@@H](C(=O)N1CCC[C@H]1c1ncc(-c2ccc(-c3ccc(-c4cnc([C@@H]5CCCN5C(=O)c5cccc(C(=O)c6ccccc6)c5)[nH]4)cc3)cc2)[nH]1)c1ccccc1` [Example 94-32, (3-(((2S)-2-(5-(4′-(2-((2S)-1-((2R)-2-(dimethylamino)-2-phenylacetyl)-2-pyrrolidinyl)-1H-imidazol-5-yl)-4-biphenylyl)-1H-imidazol-2-yl)-1-pyrrolidinyl)carbonyl)phenyl)(phenyl)methanone], with 1 to 99 nM; and `CN(C)[C@@H](C(=O)N1CCC[C@H]1c1ncc(-c2ccc(-c3ccc(-c4cnc([C@@H]5CCCN5C(=O)[C@H]5CC[C@@H](NC(=O)OC(C)(C)C)CC5)[nH]4)cc3)cc2)[nH]1)c1ccccc1` [Example 94-33, tert-butyl (cis-4-(((2S)-2-(5-(4′-(2-((2S)-1-((2R)-2-(dimethylamino)-2-phenylacetyl)-2-pyrrolidinyl)-1H-imidazol-5-yl)-4-biphenylyl)-1H-imidazol-2-yl)-1-pyrrolidinyl)carbonyl)cyclohexyl)carbamate], with 1 to 99 nM.
As for `CN(C)[C@@H](C(=O)N1CCC[C@H]1c1ncc(-c2ccc(-c3ccc(-c4cnc([C@@H]5CCCN5C(=O)C5CCN(C(=O)OC(C)(C)C)CC5)[nH]4)cc3)cc2)[nH]1)c1ccccc1` [Example 94-34, ′tert-butyl 4-(((2S)-2-(5-(4′-(2-((2S)-1-((2R)-2-(dimethylamino)-2-phenylacetyl)-2-pyrrolidinyl)-1H-imidazol-5-yl)-4-biphenylyl)-1H-imidazol-2-yl)-1-pyrrolidinyl)carbonyl)-1-piperidinecarboxylate], the EC50 was in the range of 1 to 99 nM.
Take `CN(C)[C@@H](C(=O)N1CCC[C@H]1c1ncc(-c2ccc(-c3ccc(-c4cnc([C@@H]5CCCN5C(=O)C(c5ccccc5)c5ccccc5)[nH]4)cc3)cc2)[nH]1)c1ccccc1` [Example 94-36, (1R)-2-((2S)-2-(5-(4′-(2-((2S)-1-(diphenylacetyl)-2-pyrrolidinyl)-1H-imidazol-5-yl)-4-biphenylyl)-1H-imidazol-2-yl)-1-pyrrolidinyl)-N,N-dimethyl-2-oxo-1-phenylethanamine]: the EC50 (Hepatitis C virus) was in the range of 0.001 to 0.999 nM.
On the same count and under the same terms, the result for `CC(=O)CCC(=O)N1CCC[C@H]1c1ncc(-c2ccc(-c3ccc(-c4cnc([C@@H]5CCCN5C(=O)[C@@H](c5ccccc5)N(C)C)[nH]4)cc3)cc2)[nH]1` [Example 94-37, 5-((2S)-2-(5-(4′-(2-((2S)-1-((2R)-2-(dimethylamino)-2-phenylacetyl)-2-pyrrolidinyl)-1H-imidazol-5-yl)-4-biphenylyl)-1H-imidazol-2-yl)-1-pyrrolidinyl)-5-oxo-2-pentanone] reads 1 to 99 nM; that for `CN(C)[C@@H](C(=O)N1CCC[C@H]1c1ncc(-c2ccc(-c3ccc(-c4cnc([C@@H]5CCCN5C(=O)c5ccccc5F)[nH]4)cc3)cc2)[nH]1)c1ccccc1` [Example 94-38, (1R)-2-((2S)-2-(5-(4′-(2-((2S)-1-(2-fluorobenzoyl)-2-pyrrolidinyl)-1H-imidazol-5-yl)-4-biphenylyl)-1H-imidazol-2-yl)-1-pyrrolidinyl)-N,N-dimethyl-2-oxo-1-phenylethanamine], 0.001 to 0.999 nM; that for `CN(C)[C@@H](C(=O)N1CCC[C@H]1c1ncc(-c2ccc(-c3ccc(-c4cnc([C@@H]5CCCN5C(=O)c5cscn5)[nH]4)cc3)cc2)[nH]1)c1ccccc1` [Example 94-42, (1R)-N,N-dimethyl-2-oxo-1-phenyl-2-((2S)-2-(5-(4′-(2-((2S)-1-(1,3-thiazol-4-ylcarbonyl)-2-pyrrolidinyl)-1H-imidazol-5-yl)-4-biphenylyl)-1H-imidazol-2-yl)-1-pyrrolidinyl)ethanamine], 0.001 to 0.999 nM.
The same measure, in the same setting: then `CN(C)C(C(=O)N1CCC[C@H]1c1ncc(-c2ccc(-c3ccc(-c4cnc([C@@H]5CCCN5C(=O)[C@@H](c5ccccc5)N(C)C)[nH]4)cc3)cc2)[nH]1)c1ccc(Cl)nc1` (stereo partly drawn) [Example 94-44, 1-(6-chloro-3-pyridinyl)-2-((2S)-2-(5-(4′-(2-((2S)-1-((2R)-2-(dimethylamino)-2-phenylacetyl)-2-pyrrolidinyl)-1H-imidazol-5-yl)-4-biphenylyl)-1H-imidazol-2-yl)-1-pyrrolidinyl)-N,N-dimethyl-2-oxoethanamine], with 0.001 to 0.999 nM.
